According to US20250320190A1, “Novel Inhibitors of Leucine Carboxyl Methyltransferase-1 (LCMT-1) and Methods of Use Thereof” (Temple University-Of The Commonwealth System of Higher …, priority 2024, published 2025):

Experiments:
Rosi cells [1] = assay: Cytotoxicity assay (calcein-AM); type: cell-based, human; conditions: Homo sapiens; Rosi; 48 hours; read-out: Log [μM] EC50 (converted)
Method: HS-5, HEK-293, MCF7, MDA-MB-231 and Rosi cells were seeded in 96-well optical bottom tissue culture plates (Corning, New York) at a density of 2.5×10^3 cells/well. […] Control cells were given fresh media. After 48 hours the media were aspirated and plates were washed with warmed Dulbecco's phosphate-buffered saline (DPBS) with calcium and magnesium (Sigma-Aldrich, catalog #D1283). Cells were stained with 3 μM calcein-AM (AAT Bioquest, Pleasanton, California, catalog #22002) in DPBS for 30 minutes in the dark at 37° C. Plates were immediately read with a Biotek fluorescent plate reader (excitation 485 nm, emission 520 nm). The cytotoxicity assays were performed at least three times, each time with six replicates per condition.

MCF7 cells [2] = assay: Colony forming assay; type: cell-based, human; conditions: 50-3.25 μM, one week
Method: (§1) MCF7, MDA-MB-231 and Rosi cells were seeded in 96-well tissue culture plates (Celltreat, Pepperell, Massachusetts) at a density of 90 cells per well (Mayr et al. Int J Mol Sci. 2018; 19(3)). After 24 hours, the media were changed to media containing LB-100 or Compound 2 at various concentrations (50-3.25 μM). Control cells were given fresh media. After one week the media were aspirated and the wells were washed with PBS. Cells were stained with crystal violet solution (0.25 g crystal violet in 20% methanol) for 10 minutes. The wells were washed 6 times with PBS to remove excess crystal violet. Colonies were counted with an ECHO Revolve hybrid microscope at 1.5× magnification. There were ten replicates for each condition.

MDA-MB-231 cells [3] = assay: Colony forming assay; type: cell-based, human; conditions: 50-3.25 μM, one week
Method: as §1

Rosi cells [4] = assay: Colony forming assay; type: cell-based, human; conditions: 50-3.25 μM, one week
Method: as §1

Plasma protein binding = type: in vitro ADME; conditions: read-out: Plasma Protein Binding (bound fraction) (converted)
Description: There is no cause for concern at this stage since there are multiple strategies and reagents for enhancing aqueous solubility for animal in vivo studies (Savjani, K. T., A. K. Gajjar and J. K. Savjani, 2012, ISRN Pharm 2012: 195727.). […] While target tissue exposure is dependent on free, unbound fractions in the plasma, plasma protein binding can protect compounds from hepatic metabolism. Thus, in vivo metabolism and excretion are often determined by a balance between these two properties. In vivo half-life is a complicated property impacted upon by multiple factors and is difficult to predict. […] While these numbers are somewhat low for a drug candidate, they are acceptable for proof of concept tool molecules which can be given multiple times per day and at higher doses to saturate metabolism.

501-MEL cells = assay: Cytotoxicity assay (CellTiter 96 AQeous); type: cell-based; conditions: Homo sapiens, 48 hours
Method: (§2) MCF7, MDA-MB-231, 501-MEL, Rosi, A549, SCC-15, SCC-25, UM-SCC-12, UM-SCC-14a, UM-SCC-49 and UM-SCC69 cells were seeded in 96-well tissue culture plates (Corning, New York) at a density of 2.5×10^3 cells/well. After 24 hours, the media were changed to media with LCMT-li (ChemSpace, Monmouth Junction, New Jersey) at various concentrations (0.78-200 μM). Control cells were given fresh media. After 48 hours cell viability was assessed using CellTiter 96® AQeous Non-Radioactive Cell Proliferation Assays (Promega Corporation, Madison Wisconsin). Plates were read after 4 hours with a GloMax® Discover plate reader (Promega Corporation, Madison Wisconsin). The cytotoxicity assays were performed at least twice, each time with eight replicates per condition.
(§3) Statistical analyses were performed with GraphPad Prism software (version 10.4.1). Effective concentrations that inhibited 50% of cells (EC50, log agonist versus response) were estimated with nonlinear fit curves. Absorbance values for cytotoxity assays and relative densities for Western blot assays were compared using Kruskal-Wallis analyses of variance with Dunn's correction for multiple comparisons. For flow cytometric analyses, two-way analyses of variance with Tukey's correction for multiple comparisons were used.

A549 cells = assay: Cytotoxicity assay (CellTiter 96 AQeous); type: cell-based; conditions: Homo sapiens, 48 hours
Method: as §2, §3

MCF7 cells [5] = assay: Cytotoxicity assay (CellTiter 96 AQeous); type: cell-based; conditions: Homo sapiens, 48 hours
Method: as §2, §3

MDA-MB-231 cells [6] = assay: Cytotoxicity assay (CellTiter 96 AQeous); type: cell-based; conditions: Homo sapiens, 48 hours
Method: as §2, §3

Rosi cells [7] = assay: Cytotoxicity assay (CellTiter 96 AQeous); type: cell-based; conditions: Homo sapiens, 48 hours
Method: as §2, §3

SCC-15 cells = assay: Cytotoxicity assay (CellTiter 96 AQeous); type: cell-based; conditions: Homo sapiens, 48 hours
Method: as §2, §3

UM-SCC-12 cells = assay: Cytotoxicity assay (CellTiter 96 AQeous); type: cell-based; conditions: Homo sapiens, 48 hours
Method: as §2, §3

UM-SCC-14a cells = assay: Cytotoxicity assay (CellTiter 96 AQeous); type: cell-based; conditions: Homo sapiens, UMSCC14A, 48 hours
Method: as §2, §3

UM-SCC-49 cells = assay: Cytotoxicity assay (CellTiter 96 AQeous); type: cell-based; conditions: Homo sapiens, 48 hours
Method: as §2, §3

UM-SCC-69 cells = assay: Cytotoxicity assay (CellTiter 96 AQeous); type: cell-based; conditions: Homo sapiens, 48 hours
Method: as §2, §3

With `COC(=O)c1c(NC(=O)c2ccccc2C)sc(C(=O)Nc2cccc(C)c2)c1C` [Compound 2, methyl 4-methyl-2-[(2-methylbenzoyl)amino]-5-[[(3-methylphenyl)amino]carbonyl]-3-thiophenecarboxylate] the EC50 (Rosi cells [1]) was 3.16 µM, the clonogenic colony formation (MCF7 cells [2]) was “inhibited to a lesser extent” and the clonogenic colony formation (MDA-MB-231 cells [3]) was “inhibited colony formation”. The clonogenic colony formation (Rosi cells [4]) was “inhibited colony formation”, the fraction unbound (Plasma protein binding) was 0.029 and the EC50 (501-MEL cells) was 60.6 µM. The EC50 (A549 cells) was 41.4 µM, the EC50 (MCF7 cells [5]) was 2.24 µM and the EC50 (MDA-MB-231 cells [6]) was 3.89 µM. For the same molecule, the EC50 (Rosi cells [7]) was 3.16 µM, the EC50 (SCC-15 cells) was 4.26 µM and the EC50 (UM-SCC-12 cells) was 209 µM. For the same molecule, the EC50 (UM-SCC-14a cells) was 26.4 µM, the EC50 (UM-SCC-49 cells) was 4.95 µM and the EC50 (UM-SCC-69 cells) was 2.49 µM.
